pIC50: −log10 of the molar value.
Test: Compound was tested for the inhibition of E-selectin-mediated cellular adhesion

| pIC50 | Structure (SMILES) |
| --- | --- |
| 3.00 | CCO[C@@H]1O[C@@H](CO)[C@H](O)[C@H](O[C@@H]2O[C@@H](CO)[C@@H](O[C@@H]3O[C@@H](CO)[C@H](O)[C@H](O[C@]4(C(=O)O)C[C@@H](O)[C@@H](NC(C)=O)[C@H]([C@H](O)[C@H](O)CO)O4)[C@@H]3O)[C@H](O[C@@H]3O[C@@H](C)[C@@H](O)[C@H](O)[C@@H]3O)[C@@H]2NC(C)=O)[C@@H]1O [Ethyl(Sodium 5-actamido-3,5-dideoxy-alpha-D-glycero-D-galacto-nonulopyronosylonate)-(2,3)-O-(beta-D-galactopyranosyl)-(1,4)-O(alpha-L-fucopyranosyl)-(1,3)-O-[2-(N-acetylamido)-2-deoxy-beta-D-glucopyranosyl]-(1,3)-O-beta-D-galactopyranoside(N-acetyl SLex)] |
| 4.10 | CCO[C@@H]1O[C@@H](CO)[C@H](O)[C@H](O[C@@H]2O[C@@H](CO)[C@@H](O[C@@H]3O[C@@H](CO)[C@H](O)[C@H](O[C@]4(C(=O)O)C[C@@H](O)[C@@H](NC(C)=O)[C@H]([C@H](O)[C@H](O)CO)O4)[C@@H]3O)[C@H](O[C@@H]3O[C@@H](C)[C@@H](O)[C@H](O)[C@@H]3O)[C@@H]2NC(=O)c2ccc3ccccc3c2)[C@@H]1O [Ethyl(Sodium 5-actamido-3,5-dideoxy-alpha-D-glycero-D-galacto-nonulopyronosylonate)-(2,3)-O-(beta-D-galactopyranosyl)-(1,4)-O(alpha-L-fucopyranosyl)-(1,3)-O-[2-(2-naphthamido)-2-deoxy-beta-D-glucopyranosyl]-(1,3)-O-beta-D-galactopyranoside] |
| 3.52 | CCO[C@@H]1O[C@@H](CO)[C@H](O)[C@H](O[C@@H]2O[C@@H](CO)[C@@H](O[C@@H]3O[C@@H](CO)[C@H](O)[C@H](O[C@]4(C(=O)O)C[C@@H](O)[C@@H](NC(C)=O)[C@H]([C@H](O)[C@H](O)CO)O4)[C@@H]3O)[C@H](O[C@@H]3O[C@@H](C)[C@@H](O)[C@H](O)[C@@H]3O)[C@@H]2NC(=O)c2ccccc2)[C@@H]1O [Ethyl(Sodium 5-actamido-3,5-dideoxy-alpha-D-glycero-D-galacto-nonulopyronosylonate)-(2,3)-O-(beta-D-galactopyranosyl)-(1,4)-O(alpha-L-fucopyranosyl)-(1,3)-O-[2-(benzamido)-2-deoxy-beta-D-glucopyranosyl]-(1,3)-O-beta-D-galactopyranoside] |
| 2.54 | CCO[C@@H]1O[C@@H](CO)[C@H](O)[C@H](O[C@@H]2O[C@@H](CO)[C@@H](O[C@@H]3O[C@@H](CO)[C@H](O)[C@H](O[C@]4(C(=O)O)C[C@@H](O)[C@@H](NC(C)=O)[C@H]([C@H](O)[C@H](O)CO)O4)[C@@H]3O)[C@H](O[C@@H]3O[C@@H](C)[C@@H](O)[C@H](O)[C@@H]3O)[C@@H]2NC(=O)C2CCCCC2)[C@@H]1O [Ethyl(Sodium 5-actamido-3,5-dideoxy-alpha-D-glycero-D-galacto-nonulopyronosylonate)-(2,3)-O-(beta-D-galactopyranosyl)-(1,4)-O(alpha-L-fucopyranosyl)-(1,3)-O-[2-(Cyclohexanecarboxylic acid amido)-2-deoxy-beta-D-glucopyranosyl]-(1,3)-O-beta-D-galactopyranoside] |

Source: BindingDB's records for doi:10.1021/jm9600611 (Cytel, 1996)
